Results from patent publication US4992418A, “Superactive human insulin analogue-[10-Aspartic Acid-B]Human Insulin” (Mount Sinai School of Medicine, priority 1987, dated 1991).

Experiments:
[1] = target: T1, insulin receptors in rat liver plasma membranes (Rattus norvegicus, UniProt P15127); assay: Insulin receptor binding assay (125I-insulin displacement, rat liver plasma membranes)
T1 construct: Rat liver plasma membranes were prepared as described by Horvat et al; from tissue; host or cells: rat liver plasma membranes
T1 sequence (P15127 27-759 limits assumed): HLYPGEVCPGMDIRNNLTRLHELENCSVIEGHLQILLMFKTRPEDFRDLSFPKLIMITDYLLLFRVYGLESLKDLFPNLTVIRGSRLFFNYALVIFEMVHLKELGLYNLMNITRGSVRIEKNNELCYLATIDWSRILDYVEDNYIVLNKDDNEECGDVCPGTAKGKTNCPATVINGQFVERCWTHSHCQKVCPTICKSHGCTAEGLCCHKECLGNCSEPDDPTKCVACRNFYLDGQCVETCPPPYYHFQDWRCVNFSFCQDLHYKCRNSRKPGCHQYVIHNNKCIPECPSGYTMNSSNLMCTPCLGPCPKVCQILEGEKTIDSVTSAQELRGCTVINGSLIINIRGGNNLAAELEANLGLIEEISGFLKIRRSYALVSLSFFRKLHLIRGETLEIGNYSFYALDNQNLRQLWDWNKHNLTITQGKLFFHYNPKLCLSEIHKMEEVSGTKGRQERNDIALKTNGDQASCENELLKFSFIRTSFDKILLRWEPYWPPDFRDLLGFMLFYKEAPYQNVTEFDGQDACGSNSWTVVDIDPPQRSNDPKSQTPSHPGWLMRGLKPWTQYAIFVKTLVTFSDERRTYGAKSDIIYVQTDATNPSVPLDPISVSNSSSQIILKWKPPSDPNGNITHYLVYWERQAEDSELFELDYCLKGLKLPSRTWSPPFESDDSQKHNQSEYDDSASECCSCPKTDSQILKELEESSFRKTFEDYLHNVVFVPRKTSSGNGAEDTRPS
T1 sequence (P15127 764-1383 partner limits assumed): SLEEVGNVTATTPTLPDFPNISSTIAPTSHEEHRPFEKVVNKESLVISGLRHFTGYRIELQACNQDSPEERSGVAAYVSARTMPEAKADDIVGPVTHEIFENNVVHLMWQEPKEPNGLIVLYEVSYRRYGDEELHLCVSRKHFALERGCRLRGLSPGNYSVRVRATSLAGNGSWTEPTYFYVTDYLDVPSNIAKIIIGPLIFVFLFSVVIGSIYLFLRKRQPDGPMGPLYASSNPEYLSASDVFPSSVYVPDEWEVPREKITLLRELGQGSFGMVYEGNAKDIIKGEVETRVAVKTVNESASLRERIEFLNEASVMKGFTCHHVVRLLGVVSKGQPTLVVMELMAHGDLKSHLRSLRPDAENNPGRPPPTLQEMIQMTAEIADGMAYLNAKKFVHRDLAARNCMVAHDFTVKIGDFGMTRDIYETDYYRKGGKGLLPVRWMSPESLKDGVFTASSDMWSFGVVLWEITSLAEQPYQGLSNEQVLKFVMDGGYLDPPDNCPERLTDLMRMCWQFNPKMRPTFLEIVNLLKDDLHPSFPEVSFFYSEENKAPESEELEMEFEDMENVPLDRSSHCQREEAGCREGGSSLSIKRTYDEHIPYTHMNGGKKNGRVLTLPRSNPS
Experimental: Receptor binding assays using rat liver plasma membranes were performed as described by Kitagawa et al., Biochemistry (1984), vol. 23, pp. 1405-1413. Rat liver plasma membranes were prepared as described by Horvat et al., Biochim. Biophys. Acta (1975), vol. 382, pp. 609-620.
Following incubation for 45 min at 24° C., the mixtures were diluted with 2.0 ml of ice cold 0.1M sodium phosphate, pH 7.4, containing 0.1% fraction V bovine serum albumin and immediately filtered through cellulose-acetate filters. The filters were washed twice with the ice cold buffer, dried, and then radioactivity was counted in a scintillation counter using Filtron-X®. Nonspecific binding, defined as radioactivity remaining on the filters when the incubations contained 1×10^-5 M unlabeled insulin, was subtracted from all values.
The data points shown in FIG. 3 represent the mean of triplicate determinations in a representative assay which was performed four times. The maximum binding in these assays amounted to 8.2% of the input radioactivity.

[2] = tested on: rat adipocytes
Experimental: The assays measured the ability of the insulin analogue as compared to bovine insulin to convert, [3-^3 H] glucose into lipids.
Adipocytes were prepared by incubating epididymal and perirenal fat pads obtained from male rats weighing 200-300 g with 1.0 mg/ml collagenase for 60 min at 37° C., followed by filtration through gauze and then through fine-mesh silk. Cells were washed twice by flotation in a clinical centrifuge before suspension for use. The incubation medium was Krebs-Ringer bicarbonate containing half the recommended calcium, 0.5 mM glucose, and 3% fatty acid free bovine serum albumin, with 95% O2 -5% CO2 as the gas phase. […] Cells were preincubated for 45 min at 37° C. before the addition of [3-^3 H] glucose. Incubation was continued for 60 min and stopped by the addition of 0.2 ml of 5N H2 SO4 and 0.2 ml of corn oil to aid in the extraction of lipids. Samples were extracted with 10 ml of Soluscint-0® for 30 min at room temperature before counting the radioactivity in a scintillation counter. […] Zero and 100% stimulation of lipogenesis were defined as radioactivity observed in the absence and presence, respectively, of 9.1×10^-10 M insulin (5.5 ng/ml).
Stimulation, expressed as percent of maximum, was plotted as a function of the agonist concentration. […]

[3] = tested on: Guinea pig antiserum to porcine insulin; conditions: relative to bovine or porcine insulin
Experimental: Guinea pig antiserum to porcine insulin and goat anti-guinea pig-γ globulin were used at a 1:25 dilution in assay buffer (sodium phosphate, 0.04M, pH 7.6, containing 0.154M NaCl, 0.1% gelatin, and 0.01% thimerosal). […] After incubation at room temperature overnight, 0.2 ml of the precipitating antibody (goat anti-guinea pig-γ globulin) was added, and the tubes were further incubated overnight at room temperature. Immune precipitates were collected on cellulose-acetate filters and washed with two successive 1.0 mL portions of ice-cold assay buffer. Filters were dried and radioactivity was counted in a scintillation counter in Filtron-X®. Straight-line plots of Co /Ci were constructed by linear regression analysis as described by Hales et al., Biochem. J. (1963), vol.

[4] = target: insulin receptors (Rattus norvegicus, UniProt P15127); assay: Standard in vitro assays measuring relative insulin potency (summary statements); conditions: in vitro experiments of the Examples
Chain of insulin receptors (P15127 27-759 limits assumed): as the sequence (P15127 27-759 limits assumed) above
Chain of insulin receptors (P15127 764-1383 partner limits assumed): as the sequence (P15127 764-1383 partner limits assumed) above

With [10-Aspartic acid-B] human insulin the “Shape of dose response curves in receptor binding” value ([1]; compared with bovine insulin, FIG. 3) was “essentially parallel”, the “Binding to the insulin receptor relative to natural insulins” value ([1]; more tightly than natural insulins) was “about five” and the “Relative potency: concentration ratio required to inhibit 50% of specific 125I-insulin binding” value ([1]; relative to bovine insulin, rat liver plasma membranes, assay performed four times) was “about 534±146%”. For the same substance, the “Agonist character / maximum stimulation of lipogenesis” value ([2]; compared with natural bovine insulin, FIG. 4) was “full agonist”, the “Relative potency: concentration ratio required to produce 50% of maximum stimulation of lipogenesis” value ([2]; relative to bovine insulin, isolated rat adipocytes, assays performed four times) was 435±144% and the “Potency in radioimmunoassay (ratio of slopes of Co/Ci plots)” value [3] was “approximately equal potency”. The “In vitro activity relative to natural insulin (in words)” value [4] was “several fold more active”.
